Laboratory results from patent US20170334899A1, “AMINO-SUBSTITUTED ISOTHIAZOLES” (Bayer Pharma Aktiengesellschaft, priority 2014, published 2017).

Molecular target: T1, human kinase Mps-1 (Homo sapiens, UniProt P33981)
T1 construct: N-terminally GST-tagged human full length recombinant Mps-1 kinase; GST (N); purchased Invitrogen, Karslruhe, Germany PV4071
T1 sequence (P33981 1-857): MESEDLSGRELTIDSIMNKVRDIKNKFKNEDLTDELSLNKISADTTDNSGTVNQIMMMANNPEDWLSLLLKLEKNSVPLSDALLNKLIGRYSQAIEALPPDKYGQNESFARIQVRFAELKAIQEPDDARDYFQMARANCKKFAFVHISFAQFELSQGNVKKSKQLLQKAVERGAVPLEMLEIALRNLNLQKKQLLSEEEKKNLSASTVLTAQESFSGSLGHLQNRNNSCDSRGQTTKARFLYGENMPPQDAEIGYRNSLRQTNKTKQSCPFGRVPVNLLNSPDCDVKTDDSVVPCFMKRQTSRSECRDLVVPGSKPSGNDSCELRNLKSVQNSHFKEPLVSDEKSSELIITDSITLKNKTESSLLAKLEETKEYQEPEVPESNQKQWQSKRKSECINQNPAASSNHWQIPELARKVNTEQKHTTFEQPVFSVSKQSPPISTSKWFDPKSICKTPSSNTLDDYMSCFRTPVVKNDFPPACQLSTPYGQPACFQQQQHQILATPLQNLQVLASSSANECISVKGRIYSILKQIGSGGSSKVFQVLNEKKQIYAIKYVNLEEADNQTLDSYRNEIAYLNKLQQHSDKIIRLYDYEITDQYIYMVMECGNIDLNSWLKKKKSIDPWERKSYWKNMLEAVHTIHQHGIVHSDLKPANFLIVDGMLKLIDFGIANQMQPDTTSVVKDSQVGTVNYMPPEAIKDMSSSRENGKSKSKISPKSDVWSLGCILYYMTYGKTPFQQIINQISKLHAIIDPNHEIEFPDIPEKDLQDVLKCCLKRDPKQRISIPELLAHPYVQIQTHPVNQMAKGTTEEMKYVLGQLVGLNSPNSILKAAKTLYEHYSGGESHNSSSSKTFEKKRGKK
Test: Mps-1 kinase assay (TR-FRET)
Type: biochemical
Conditions: Mps-1 TR-FRET kinase assay; avg; read-out: Mps1 avg (IC50 [mol/l])
Method: The human kinase Mps-1 phosphorylates a biotinylated substrate peptide. Detection of the phosphorylated product is achieved by time-resolved fluorescence resonance energy transfer (TR-FRET) from Europium-labelled anti-phospho-Serine/Threonine antibody as donor to streptavidin labelled with cross-linked allophycocyanin (SA-XLent) as acceptor. Compounds are tested for their inhibition of the kinase activity.
N-terminally GST-tagged human full length recombinant Mps-1 kinase (purchased from Invitrogen, Karslruhe, Germany, cat. no PV4071) was used. As substrate for the kinase reaction a biotinylated peptide of the amino-acid sequence biotin-Ahx-PWDPDDADITEILG (C-terminus in amide form, purchased from Biosyntan GmbH, Berlin) was used.
For the assay 50 nl of a 100-fold concentrated solution of the test compound in DMSO was pipetted into a black low volume 384we11 microtiter plate (Greiner Bio-One, Frickenhausen, Germany), 2 μl of a solution of Mps-1 in assay buffer [0.1 mM sodium-ortho-vanadate, 10 mM MgCl2,2 mM DTT, 25 mM Hepes pH 7.7, 0.05% BSA (w/v), 0.001% Pluronic F-127] were added and the mixture was incubated for 15 min at 22° C. to allow pre-binding of the test compounds to Mps-1 before the start of the kinase reaction. Then the kinase reaction was started by the addition of 3 μl of a solution of 16.7 μM adenosine-tri-phosphate (ATP, 16.7 μM=>final conc. in the 5 μl assay volume is 10 μM) and peptide substrate (1.67 μM=>final conc. in the 5 μl assay volume is 1 μM) in assay buffer and the resulting mixture was incubated for a reaction time of 60 min at 22° C. The concentration of Mps-1 in the assay was adjusted to the activity of the enzyme lot and was chosen appropriate to have the assay in the linear range, typical enzyme concentrations were in the range of about 0.5 nM (final conc. in the 5 μl assay volume). The reaction was stopped by the addition of 5 μl of a solution of TR-FRET detection reagents (100 mM Hepes pH 7.4, 0.1% BSA, 40 mM EDTA, 140 nM Streptavidin-XLent [#61GSTXLB, Fa. Cis Biointernational, Marcoule, France], 1.5 nM anti-phospho(Ser/Thr)-Europium-antibody [#AD0180, PerkinElmer LAS, Rodgau-Jugesheinn, Germany]. Instead of the 1.5 nM anti-phospho(Ser/Thr)-Europium-antibody a mixture of 2 nM unlabeled anti-phospho ser/thr-pro antibody MPM-2 [Millipore cat. #05-368] and 1 nM LANCE EU-W1024 labeled anti-mouse IgG antibody [Perkin-Elmer, product no. AD0077] can be used).
The resulting mixture was incubated 1 h at 22° C. to allow the binding of the phosphorylated peptide to the anti-phospho(Ser/Thr)-Europium-antibody. Subsequently the amount of phosphorylated substrate was evaluated by measurement of the resonance energy transfer from the Europium-labelled anti-phospho(Ser/Thr) antibody to the Streptavidin-XLent. Therefore, the fluorescence emissions at 620 nm and 665 nm after excitation at 350 nm was measured in a Viewlux TR-FRET reader (PerkinElmer LAS, Rodgau-Jugesheinn, Germany). The “blank-corrected normalized ratio” (a Viewlux specific readout, similar to the traditional ratio of the emissions at 665 nm and at 622 nm, in which blank and Eu-donor crosstalk are subtracted from the 665 nm signal before the ratio is calculated) was taken as the measure for the amount of phosphorylated substrate. The data were normalised (enzyme reaction without inhibitor=0% inhibition, all other assay components but no enzyme=100% inhibition).

| IC50 | SMILES |
| --- | --- |
| ≥ 20 µM | Cc1nsc(Nc2cc(C#N)ccn2)c1C(=O)Nc1ccc(Oc2cccnc2)nc1 [Example 119, 5-[(4-Cyanopyridin-2-yl)amino]-3-methyl-N-[6-(pyridin-3-yloxy)pyridin-3-yl]-1,2-thiazole-4-carboxamide] |
| ≥ 20 µM | Cc1nsc(Nc2cnc(C(F)(F)F)cn2)c1C(=O)Nc1ccc(OCC2CCN(CCF)C2)nc1 (stereo not shown) [Example 121, N-(6-{[1-(2-fluoroethyl)pyrrolidin-3-yl]methoxy}pyridin-3-yl)-3-methyl-5-{[5-(trifluoromethyl)pyrazin-2-yl]amino}-1,2-thiazole-4-carboxamide] |
| ≥ 20 µM | Cc1nsc(Nc2cnc(C(F)(F)F)cn2)c1C(=O)Nc1ccc(OCC2CCN(CC(F)F)C2)nc1 (stereo not shown) [Example 122, N-(6-{[1-(2,2-difluoroethyl)pyrrolidin-3-yl]methoxy}pyridin-3-yl)-3-methyl-5-{[5-(trifluoromethyl)pyrazin-2-yl]amino}-1,2-thiazole-4-carboxamide] |
| ≥ 20 µM | Cc1nsc(Nc2cnc(C(F)(F)F)cn2)c1C(=O)Nc1ccc(OCC2CCN(CC(F)(F)F)C2)nc1 (stereo not shown) [Example 123, 3-Methyl-N-(6-{[1-(2,2,2-trifluoroethyl)pyrrolidin-3-yl]methoxy}pyridin-3-yl)-5-{[5-(trifluoromethyl)pyrazin-2-yl]amino}-1,2-thiazole-4-carboxamide] |
| ≥ 20 µM | Cc1nsc(Nc2cnc(C(F)(F)F)cn2)c1C(=O)Nc1ccc(OCC2CCN(CCC(F)(F)F)C2)nc1 (stereo not shown) [Example 124, 3-methyl-5-{[5-(trifluoromethyl)pyrazin-2-yl]amino}-N-(6-{[1-(3,3,3-trifluoropropyl)pyrrolidin-3-yl]methoxy}pyridin-3-yl)-1,2-thiazole-4-carboxamide] |
| > 20 µM | Cc1nsc(Nc2cnc(C(F)(F)F)cn2)c1C(=O)Nc1ccc(OC[C@@H]2CCN(CC(F)(F)F)C2)nc1 [Example 128, 3-Methyl-N-(6-{[(3R)-1-(2,2,2-trifluoroethyl)pyrrolidin-3-yl]methoxy}pyridin-3-yl)-5-{[5-(trifluoromethyl)pyrazin-2-yl]amino}-1,2-thiazole-4-carboxamide] |
| > 20 µM | Cc1nsc(Nc2cnc(C(F)(F)F)cn2)c1C(=O)Nc1ccc(OC[C@@H]2CCN(CCC(F)(F)F)C2)nc1 [Example 129, 3-Methyl-5-{[5-(trifluoromethyl)pyrazin-2-yl]amino}-N-(6-{[(3R)-1-(3,3,3-trifluoropropyl)pyrrolidin-3-yl]methoxy}pyridin-3-yl)-1,2-thiazole-4-carboxamide] |
| > 20 µM | Cc1nsc(Nc2cnc(C(F)(F)F)cn2)c1C(=O)Nc1ccc(O[C@@H]2CCN(CC(F)F)C[C@@H]2F)nc1 [Example 137, N-(6-{[(3S,4R)-1-(2,2-difluoroethyl)-3-fluoropiperidin-4-yl]oxy}pyridin-3-yl)-3-methyl-5-{[5-(trifluoromethyl)pyrazin-2-yl]amino}-1,2-thiazole-4-carboxamide] |
| > 20 µM | Cc1nsc(Nc2cnc(C(F)(F)F)cn2)c1C(=O)Nc1ccc(O[C@@H]2CCN(CC(F)(F)F)C[C@@H]2F)nc1 [Example 138, N-(6-{[(3S,4R)-3-fluoro-1-(2,2,2-trifluoroethyl)piperidin-4-yl]oxy}pyridin-3-yl)-3-methyl-5-{[5-(trifluoromethyl)pyrazin-2-yl]amino}-1,2-thiazole-4-carboxamide] |

Further lines, the molecule ahead of its results:

| SMILES | IC50 |
| --- | --- |
| Cc1nsc(Nc2cnc(C(F)(F)F)cn2)c1C(=O)Nc1ccc(OCC2CCN(C(=O)OC(C)(C)C)C2)nc1 (stereo not shown) [Example 109, tert-Butyl 3-{[(5-{[(3-methyl-5-{[5-(trifluoromethyl)pyrazin-2-yl]amino}-1,2-thiazol-4-yl)carbonyl]amino}pyridin-2-yl)oxy]methyl}pyrrolidine-1-carboxylate] | ≥ 20 µM |
| Cc1nsc(Nc2cncc(C(F)(F)F)n2)c1C(=O)Nc1ccc(OCC2CCN(C(=O)OC(C)(C)C)C2)nc1 (stereo not shown) [Example 110, tert-Butyl 3-{[(5-{[(3-methyl-5-{[6-(trifluoromethyl)pyrazin-2-yl]amino}-1,2-thiazol-4-yl)carbonyl]amino}pyridin-2-yl)oxy]methyl}pyrrolidine-1-carboxylate] | ≥ 20 µM |
| CNS(=O)(=O)c1ccc(NC(=O)c2c(C)nsc2Nc2cnc3ccccc3n2)cc1 [Example 111, 3-Methyl-N-[4-(methylsulfannoyl)phenyl]-5-(quinoxalin-2-ylamino)-1,2-thiazole-4-carboxamide] | ≥ 20 µM |
| CC(=O)N(C)CCOc1ccc(NC(=O)c2c(C)nsc2Nc2nc3c(C(F)(F)F)cccc3s2)cn1 [Example 112, N-(6-{2-[Acetyl(methyl)amino]-ethoxy}pyridin-3-yl)-3-methyl-5-{[4-(trifluoromethyl)-1,3-benzothiazol-2-yl]amino}-1,2-thiazole-4-carboxamide] | ≥ 20 µM |
| Cc1nsc(Nc2cnc3ccccc3n2)c1C(=O)Nc1cccc(C(=O)N2CCCC2)c1 [Example 113, 3-Methyl-N-[3-(pyrrolidin-1-ylcarbonyl)phenyl]-5-(quinoxalin-2-ylamino)-1,2-thiazole-4-carboxamide] | 12 µM |
| Cc1nsc(Nc2cc(C#N)ccn2)c1C(=O)Nc1cccc(C(=O)N2CCCC2)c1 [Example 114, 5-[(4-Cyanopyridin-2-yl)amino]-3-methyl-N-[3-(pyrrolidin-1-ylcarbonyl)phenyl]-1,2-thiazole-4-carboxamide] | ≥ 20 µM |
| Cc1nsc(Nc2cnc3ccccc3n2)c1C(=O)Nc1ccc(S(C)(=O)=O)cc1 [Example 115, 3-Methyl-N-[4-(methylsulfonyl)phenyl]-5-(quinoxalin-2-ylamino)-1,2-thiazole-4-carboxamide] | ≥ 20 µM |
| CCNS(=O)(=O)c1ccc(NC(=O)c2c(C)nsc2Nc2cnc3ccccc3n2)cc1 [Example 116, N-[4-(Ethylsulfamoyl)phenyl]-3-methyl-5-(quinoxalin-2-ylamino)-1,2-thiazole-4-carboxamide] | ≥ 20 µM |
| Cc1nsc(Nc2cnc3ccccc3n2)c1C(=O)Nc1ccc(Oc2cccc(C(F)(F)F)c2)nc1 [Example 117, 3-Methyl-5-(quinoxalin-2-ylamino)-N-{6-[3-(trifluoromethyl)phenoxy]pyridin-3-yl}-1,2-thiazole-4-carboxamide] | ≥ 20 µM |
| Cc1nsc(Nc2ccc(C#N)cn2)c1C(=O)Nc1ccc(Oc2cccc(C(F)(F)F)c2)nc1 [Example 118, 5-[(5-Cyanopyridin-2-yl)amino]-3-methyl-N-{6-[3-(trifluoromethyl)phenoxy]pyridin-3-yl}-1,2-thiazole-4-carboxamide] | ≥ 20 µM |
